This is an account of results in PubChem BioAssay (NCI).

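Cells were grown in 96-well plates and exposed to each compound for 48 hours at five concentrations; endpoints were interpolated linearly between bracketing concentrations, or set to the highest concentration if not reached. GI50: concentration for 50% inhibition of growth. TGI denotes the concentration required for complete inhibition of growth.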

Common to all, as to assay: NCI anticancer screen, dose series, 48 h
Experiment [1] has as its system CCRF-CEM leukemia.
Experiment [2] deals with SF-295 CNS.
In experiment [3] the test system is SK-OV-3 ovarian.
Experiment [4] has as its system HS 578T breast.
In experiment [5] the test system is COLO 205 colon.
Experiment [6] concerns HL-60(TB) leukemia.
Experiment [7] concerns MDA-MB-231 breast.
Experiment [8] has as its system NCI-H226 lung.
In experiment [9] the test system is OVCAR-4 ovarian.
The subject of experiment [10] is SN12C renal.

For the compound `C=C(C)[C@@H]1CC[C@]2(C(N)=O)CC[C@]3(C)[C@H](CC[C@@H]4[C@@]5(C)CC[C@H](O)C(C)(C)[C@@H]5CC[C@]43C)[C@@H]12`, the GI50 in [1] is 4.49 µM; in experiment [2] it was 3.39 µM; in experiment [3], 8.18 µM; in [4], 5.74 µM; in experiment [5], 3.63 µM; in experiment [6] it was 3.59 µM. Also, the GI50 in [7] is 1.97 µM; in [8] it was 4.1 µM; in experiment [9], 3.54 µM; in experiment [10] it was 3 µM. In addition, the TGI in [1] is > 100 µM; in experiment [2] it was 24.8 µM; in [3], 29.8 µM; in experiment [4], > 100 µM; in [5], 15 µM; in experiment [6], 17.5 µM. Also, the TGI in [7] stood at 4.6 µM; in [8] it was 17.8 µM; in experiment [9] it was 19.8 µM; in experiment [10], 10.6 µM.

On to `CC1=C(C(=O)Nc2ccccc2C)C(c2ccc(C3C(C(=O)Nc4ccccc4C)=C(C)NC(C)=C3C(=O)Nc3ccccc3C)cc2)C(C(=O)Nc2ccccc2C)=C(C)N1`, for which the TGI is 7.82 µM in experiment [1]; 17.1 µM in [2]; 28.8 µM in experiment [3]; 55.3 µM in [4]; 14.5 µM in experiment [5]; 6.15 µM in experiment [6]. Also, the TGI was 15.2 µM in experiment [7], 28.7 µM in experiment [8], 22.1 µM in experiment [9] and 2.85 µM in experiment [10].

On to `COC(=O)[C@H]1C(=O)[C@@]2(C)[C@H]([C@H](OC(=O)c3ccccc3)[C@]3(O)C[C@H](OC(=O)[C@H](O)[C@@H](NC(=O)c4ccc(F)cc4)c4ccccc4)C(C)=C1C3(C)C)[C@]1(OC(C)=O)CO[C@@H]1C[C@@H]2O`, for which the GI50 in [1] is 0.00685 µM; in experiment [2] it was 0.00919 µM; in experiment [3] it was 0.0115 µM; in experiment [4] it was 0.00363 µM; in experiment [5] it was 0.00709 µM; in experiment [6] it was 0.00614 µM. The GI50 in experiment [7] is 0.0414 µM; in [8], 0.612 µM; in [9], 0.633 µM; in [10] it was 0.0104 µM. Besides, the TGI in [1] is > 8.69 µM; in experiment [2], 0.0639 µM; in [3], > 25 µM; in experiment [4], 0.0231 µM; in experiment [5] it was 0.0565 µM; in experiment [6], 0.0184 µM. The TGI is > 14.4 µM in experiment [7], > 25 µM in [8], > 25 µM in experiment [9] and > 25 µM in [10].

In the case of `CNC(=O)c1c(NC(=O)c2ccc(C(F)(F)F)cc2)sc2c1CCC(=O)C2`, the GI50 in [1] was 0.155 µM; in [2] it was 0.821 µM; in [3], 2.26 µM; in [4] it was 0.774 µM; in experiment [5], 0.603 µM; in experiment [6] it was 0.363 µM. Besides, the GI50 in experiment [7] is 0.529 µM; in experiment [8] it was 1.82 µM; in experiment [9], 0.604 µM; in experiment [10], 0.69 µM. For the same compound, the TGI in experiment [2] worked out at 2.97 µM; in experiment [3] it was 7.2 µM; in experiment [4], 13.2 µM; in experiment [5], 3.1 µM; in experiment [6], 2.09 µM; in experiment [7], 2.51 µM. In addition, the TGI is 5.35 µM in experiment [8], 1.92 µM in experiment [9] and 24.1 µM in [10].

For `CO/[N+]([O-])=C\C(=O)N/C=C/C(=O)O`, the TGI in experiment [1], in experiment [2], in experiment [3], in experiment [4], in experiment [5] and in experiment [6] was > 100 µM throughout. For the same compound, the TGI in experiment [7], in experiment [8], in experiment [9] and in [10] was > 100 µM in each case.

Consider `COc1cc2c(F)nccc2cc1C(=O)N[C@@H](c1ccc(F)c(Cl)c1)[C@@H]1C[C@@H](O)CN1`, for which the GI50 is 0.299 µM in experiment [1]; 0.131 µM in [2]; 0.268 µM in experiment [3]; 0.0715 µM in [4]; 3.1 µM in experiment [5]; 2.11 µM in experiment [6]. Moreover, the GI50 in experiment [7] was 11.3 µM; in [8], 5.99 µM; in experiment [9], 8.59 µM; in [10], 8.08 µM. For the same compound, the TGI in [1] is > 42 µM; in [2], 13.2 µM; in experiment [3] it was 13.7 µM; in [4], 2.41 µM; in experiment [5], 19.4 µM; in experiment [6] it was 5.61 µM. The TGI in experiment [7] was found to be 25 µM; in [8], 24.4 µM; in experiment [9], 24.6 µM; in experiment [10], 22.2 µM.

Turning to `CCN1C(=O)N(CC)C2C1NN=c1s/c(=C\c3ccccc3F)c(=O)n12` (centres undefined), the GI50 in experiment [1] was 0.0386 µM; in experiment [2] it was 0.0242 µM; in [3], 0.054 µM; in experiment [4], 0.0345 µM; in experiment [5], 0.0271 µM; in [6], 0.0239 µM. Besides, the GI50 in experiment [7] was 0.0457 µM; in experiment [8], 11.2 µM; in experiment [9] it was 0.0668 µM; in experiment [10], 0.0522 µM. The TGI in [1] is > 100 µM; in experiment [2], > 49.8 µM; in experiment [3], 77.5 µM; in [4], > 100 µM; in experiment [5], 0.0737 µM; in [6] it was 0.0607 µM. In addition, the TGI in experiment [7] was > 84.6 µM; in experiment [8] it was > 100 µM; in [9], > 100 µM; in experiment [10], > 100 µM.

For `Cc1ncc(C(=O)Nc2ccc(CN3CCN(C)CC3)c(C(F)(F)F)c2)cc1C#Cc1cnc(N)c2cnccc12`, the GI50 in experiment [1] is 0.0906 µM; in experiment [2] it was 0.309 µM; in experiment [3], 0.162 µM; in [4] it was 0.058 µM; in experiment [5], 0.0276 µM; in [6], 0.0383 µM. The GI50 is 0.0289 µM in experiment [7], 0.175 µM in experiment [8], 0.0447 µM in experiment [9] and 0.037 µM in experiment [10]. Moreover, the TGI in [1] was determined as 3.46 µM; in experiment [2], 14.8 µM; in experiment [3], 0.763 µM; in [4], 0.696 µM; in experiment [5], 3.74 µM; in experiment [6], 1.03 µM. Further, the TGI in experiment [7] was found to be 0.165 µM; in experiment [8] it was 3.09 µM; in experiment [9], 4.25 µM; in experiment [10] it was 11.5 µM.
